Results: PMC9014412 (Journal of medicinal chemistry, 2022)

How the values were obtained:
[1] = biological target: T1, HDAC1-CoREST-LSD1 complex (Homo sapiens, UniProt Q13547); assay: Fluorescent HDAC assay with purified HDAC1-CoREST-LSD1 complex; assay type: biochemical; conditions: Boc-(Ac)Lys-AMC substrate
T1 construct: made in house
Experimental: (§1) 2. In Vitro HDAC Assay with Class I HDAC Complexes
(§2) Histone Deacetylase Assay. Inhibition experiments against HDAC1-CoREST-LSD1, HDAC2-CoREST-LSD1 and HDAC3-SMRT-DAD were conducted using a fluorescent HDAC assay. The assays were carried out utilising a black 96-well plates (Corning) with a reaction volume of 50 µL. HDAC complexes were expressed and purified as described previously.1,2 100 µM of Boc- (Ac)Lys-AMC was used as a substrate in each well. All determinations were performed in triplicate. The inhibitors/PROTACs were dissolved at 50 mM in DMSO, and then further diluted with 10% DMSO HDAC assay buffer (10% DMSO, 50 mM Tris pH 7.5, 50 mM NaCl, 0.1 mg/mL BSA) to micromolar concentrations. 1:3 serial dilutions were then carried out using 10% DMSO HDAC assay buffer to afford range of concentrations. 10 µL of each of these solutions were […]
(§3) assay buffer (50 mM Tris pH 7.5, 50 mM NaCl, 0.1 mg/mL BSA). The plate was then incubated at 20 °C, 100 RPM for 1 hour. After incubation, 10 µL of the Boc-(Ac)Lys-AMC substrate, dissolved in HDAC assay buffer, was added to each well. […] Fluorescence intensity was determined […]
(§4) IC 50 values were calculated through the GraphPad Prism 7 software by non-linear regression, log (inhibitor) vs. response – variable slope […]

[2] = biological target: T2, HDAC2-CoREST-LSD1 complex (Homo sapiens, UniProt Q92769); assay: Fluorescent HDAC assay with purified HDAC2-CoREST-LSD1 complex; assay type: biochemical; conditions: Boc-(Ac)Lys-AMC substrate
T2 construct: made in house
Experimental: as §1, §2, §3, §4

HDAC3-SMRT complex = biological target: T3, HDAC3-SMRT complex (Homo sapiens, UniProt O15379); assay: Fluorescent HDAC assay with purified HDAC3-SMRT complex; assay type: biochemical; conditions: Boc-(Ac)Lys-AMC substrate
T3 construct: made in house
Experimental: as §1, §2, §3, §4

HCT116 cells [3] = assay: CellTiter-Glo 2.0 cell viability assay; assay type: cell-based, human
Experimental: CellTiter-Glo 2.0 Reagent (Promega UK Ltd, G9242) was equilibrated to room temperature and added to the wells in a ratio of 1 volume reagent:5 volumes medium. Background luminescence was determined using medium alone plus reagent. The plates were shaken on an orbital shaker for 2 min to induce cell lysis and then incubated in the dark at room temperature for 10 min to stabilize the luminescent signal. Luminescence was captured on a CLARIOstar plate reader (BMG Labtech Ltd, UK) at 22 °C to give relative luminescence units and analyzed using BMG Labtech software. EC50 values were calculated by nonlinear regression (Hill plot) and log (inhibitor) versus response—variable slopes (four parameters) using GraphPad Prism 9 software. Each compound dose response was repeated as four independent biological replicates (n = 4).

HCT116 cells [4] = assay: RNA-seq differential gene expression; assay type: cell-based, human; conditions: 10 μM, 24 h, compared with the more potent degraders
Experimental: RNA-seq analysis was performed in HCT116 cells treated with PROTACs (JPS004, JPS014, JPS016, JPS035, and JPS036) for 24 h at 10 μM concentration. Total RNA was isolated using a Tri-reagent RNA miniprep kit (Zymogen; R2053), before RNA integrity, size, and purity were assessed using an Agilent Bioanalyzer. Library preparation and sequencing were performed by Novogene, using a NovaSeq 6000 PE150 platform at a read depth of 20 million. For bioinformatics analysis, see the Supporting Information. RNA-seq data from the study was deposited at the GEO database (GSE197985).
3. Apoptosis Flow Cytometry Assay
Figure S9. Apoptosis flow cytometry assay with 2.5 µM and 10 µM treatments of JPS016 and JPS016NC at 24 and 48 hours. Error bars represent the average of three independent biological replicates.
µM µM µM 5 µM µM µM µM µM µM µM
4. RNA Seq – Bioinformatics Analysis
Paired-end reads were aligned using HISAT2 (v2.2.1) and mapped to the HISAT2 GRCh38_tran index build.3 Quality control was performed on raw and aligned data using FASTQC (v0.11.9) and summarised using MultiQC (v1.11).4,5 The resulting SAM files were subsequently sorted and converted to the BAM format before indexing with SAMtools (v 1.12).6 Reads were then counted across the exons of each gene and gene loci annotated using command-line program LiBiNorm (v2.4); run in HT-Seq compatibility mode (-z) and provided with the ‘Homosapiens.GRCh38.104’ GTF file obtained from Ensembl. LiBiNorm was run using the following parameters: LiBiNorm count -z -r pos -i gene_name -s reverse <BAM file> Homo_sapiens.GRCh38.104.gtf <OUTPUT file>.7 Default normalisation of expression values and differential gene analysis was then carried out using the R package DESeq2.8 Significance thresholds were set as a p-adjusted value < 0.01 and a fold change > 2 (log2 fold change > 1) and implemented for down-stream analysis, with all plots produced in R. Gene ontology (GO) analysis was carried out using the Bioconductor package topGO using the human genome-wide annotation package to map gene identifiers to the relevant org.Hs.eg.db […]

H3K56ac = assay: Histone H3 Lys 56 acetylation (H3K56ac) western blotting; assay type: cell-based, human; conditions: HCT116 cells, 24 h, screen at 0.1, 1, 10 μM; relative to DMSO, CI-994 and 1 at 10 μM
Excerpt: (§5) Supporting Information: Biology
(§6) Representative blots of two independent biological replicates.

HDAC1 = HDAC1 (Homo sapiens, UniProt Q13547); assay: HDAC1 degradation by quantitative western blotting in HCT116 cells; conditions: for HDAC1 degradation in initial screen (in words): HCT116 cells, 24 h, 0.1, 1 and 10 μM, compared with 1 at 10 μM
Experimental: (§7) Initially, each PROTAC was tested at 0.1, 1, and 10 μM in HCT116 cells for 24 h; then, cell extracts were prepared and evaluated for HDAC1/2 and 3 degradation by quantitative western blotting.
(§8) This cell line was incubated at 37 °C with 5% CO2.
(§9) HCT116 cells were seeded into 6-well plates (4 × 10^5 cells/well for 24 h, 2 × 10^5 cells/well for 48 h) for 24 h and then treated with DMSO or compounds at the indicated concentrations in fresh medium (5 mL total). After desired treatment time, the cells were harvested and then lysed in lysis buffer (50 mM Tris-HCl, 150 mM NaCl, 0.5% NP-40, 0.5% Triton X-100) supplemented with a protease inhibitor (Sigma, P8340). The suspension was incubated on ice for 30 min and centrifuged (18,000 rcf, 15 min, 4 °C); then, the supernatant was collected, and protein concentrations were quantified via Bradford Assay using Protein Assay Dye Reagent Concentrate (BIO-RAD). […] PageRuler Plus Prestained Ladder was used for size standards. After gel electrophoresis at 140 V for 90 min, the separated proteins were transferred onto a nitrocellulose membrane at 30 V for 60 min. The membranes were probed with primary antibodies (see the Supporting Information) for 60−90 min. Blots were developed with complimentary IRDye-conjugated secondary antibodies, and the bands were visualized using an Odyssey infrared imaging system. Image processing and band intensity quantification were performed using Image Studio Lite.

HDAC2 = HDAC2 (Homo sapiens, UniProt Q92769); assay: HDAC2 degradation by quantitative western blotting in HCT116 cells; conditions: for HDAC2 degradation in initial screen (in words): HCT116 cells, 24 h, 0.1, 1 and 10 μM, compared with 1 at 10 μM
Experimental: as §7, §8, §9

HDAC3 = HDAC3 (Homo sapiens, UniProt O15379); assay: HDAC3 degradation by quantitative western blotting in HCT116 cells
Experimental: as §7, §8, §9

SIN3A = SIN3A protein levels by western blotting; assay type: cell-based, human; conditions: HCT116 cells, 10 μM, after 24 h
Experimental: as §5, §6
Figure S6. Representative Western blot of HDAC1/2/3 levels after 24 hours and 48 hours with 1
(JPS004), 7 (JPS014) and 9 (JPS016), and bar graph representation of HDAC1-3, LSD1 and Sin3a
protein levels after 24 hours and 48 hours as the average of three independent biological replicates.
(also on this page, place not known: HDAC1 24hHDAC2 24hHDAC3 24hHDAC1 48hHDAC2 48hHDAC3 %Protein Levels Remaining (Relative to DMSO) %Protein Levels Remaining (Relative to DMSO))

HCT116 cells [5] = assay: Apoptosis flow cytometry assay (sub-G1 population); assay type: cell-based, human; conditions: 10 μM, after 24 h
Experimental: HCT116 cells were seeded (5 × 10^5 cells/plate) into 6 cm tissue culture plates for 24 h and then treated with 10 μM compounds (with 0.1% DMSO vehicle) or 0.1% DMSO control in fresh medium (5 mL total). The cells were then exposed to the compounds (10 μM) for 24 or 48 h. To harvest the cells, the medium was transferred from each sample plate to 15 mL centrifuge tubes. Each well was washed with 1 mL of phosphate-buffered saline (PBS) and the PBS was transferred to the corresponding 15 mL centrifuge tube. The plates were trypsinized, 2 mL of medium was added, and the cells and medium were transferred to the corresponding 15 mL centrifuge tubes. The harvested cells were pelleted by centrifugation (200g, 5 min, 4 °C), washed with 1 mL PBS, and then pelleted again by centrifugation (200g, 5 min, 4 °C). The supernatant was discarded, and the pellets resuspended in 1 mL of 70% ethanol (ice-cold) to fix the cells. Samples were stored at 4 °C and analyzed within two weeks. PBS (1 mL) was added to each sample tube containing cells fixed in 70% ethanol. The cells were pelleted by centrifugation (200g, 5 min, 4 °C), and the PBS wash was repeated. The supernatant was discarded, and the pellet was resuspended in 50 μL of RNase A (1 μg/mL, Thermo Scientific, EN0531) and left at room temperature for 10 min to digest contaminating RNA. A total of 500 μL of PI stain (50 μg/mL, Invitrogen, P3566) was added to each tube, and the tubes were incubated in the dark, at room temperature, for 30 min. Results were acquired on a BD FACSCanto II flow cytometer and analyzed using BD FACSdiva software. Sub-G1 population was calculated as a percentage of total cell population. Two independent biological replicates were performed.

Solubility observations = assay type: physicochemical; conditions: aqueous

HDAC2, sequence (Q92769 whole entry): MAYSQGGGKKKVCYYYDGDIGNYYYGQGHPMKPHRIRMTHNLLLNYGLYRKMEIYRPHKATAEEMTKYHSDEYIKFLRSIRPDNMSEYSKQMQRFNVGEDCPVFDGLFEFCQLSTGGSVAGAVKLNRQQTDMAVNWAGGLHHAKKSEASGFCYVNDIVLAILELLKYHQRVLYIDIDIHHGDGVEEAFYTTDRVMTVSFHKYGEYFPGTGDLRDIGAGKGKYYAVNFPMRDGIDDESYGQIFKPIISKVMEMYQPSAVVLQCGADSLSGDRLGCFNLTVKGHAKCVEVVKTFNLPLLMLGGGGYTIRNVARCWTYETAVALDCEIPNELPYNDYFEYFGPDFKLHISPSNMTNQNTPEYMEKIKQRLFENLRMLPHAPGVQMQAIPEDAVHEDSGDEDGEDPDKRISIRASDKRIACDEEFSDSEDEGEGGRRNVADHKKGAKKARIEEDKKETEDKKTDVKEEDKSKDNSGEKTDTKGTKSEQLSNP
HDAC1, sequence (Q13547 whole entry): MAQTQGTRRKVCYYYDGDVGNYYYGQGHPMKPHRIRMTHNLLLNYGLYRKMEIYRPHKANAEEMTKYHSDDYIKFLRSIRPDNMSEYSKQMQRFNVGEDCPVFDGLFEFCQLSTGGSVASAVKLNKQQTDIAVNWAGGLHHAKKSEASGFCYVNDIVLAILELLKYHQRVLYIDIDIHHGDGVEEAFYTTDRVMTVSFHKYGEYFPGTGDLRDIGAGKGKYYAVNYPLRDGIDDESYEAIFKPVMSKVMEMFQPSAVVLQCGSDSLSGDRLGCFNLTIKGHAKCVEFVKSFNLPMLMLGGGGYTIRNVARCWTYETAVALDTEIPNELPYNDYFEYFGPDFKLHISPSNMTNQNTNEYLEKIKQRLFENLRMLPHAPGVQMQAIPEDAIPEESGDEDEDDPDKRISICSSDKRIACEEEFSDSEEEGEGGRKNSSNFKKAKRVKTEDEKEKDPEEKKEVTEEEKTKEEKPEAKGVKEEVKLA
HDAC3, sequence (O15379 whole entry): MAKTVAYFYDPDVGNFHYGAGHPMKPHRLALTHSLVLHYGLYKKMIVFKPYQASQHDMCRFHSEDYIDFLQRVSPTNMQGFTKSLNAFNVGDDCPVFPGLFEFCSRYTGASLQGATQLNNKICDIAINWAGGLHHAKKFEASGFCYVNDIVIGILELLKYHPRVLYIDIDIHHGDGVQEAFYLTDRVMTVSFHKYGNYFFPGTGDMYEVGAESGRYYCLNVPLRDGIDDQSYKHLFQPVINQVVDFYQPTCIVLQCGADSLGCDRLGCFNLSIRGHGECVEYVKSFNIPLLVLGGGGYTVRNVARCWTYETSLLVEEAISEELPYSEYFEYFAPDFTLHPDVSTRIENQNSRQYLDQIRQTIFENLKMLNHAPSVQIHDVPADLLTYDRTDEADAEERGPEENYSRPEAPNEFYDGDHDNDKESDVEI
HDAC3, sequence (Q9Y618 389-480 partner limits assumed): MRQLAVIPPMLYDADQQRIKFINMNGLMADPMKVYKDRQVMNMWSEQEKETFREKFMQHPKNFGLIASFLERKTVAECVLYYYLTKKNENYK
T2 sequence (Q92769 whole entry, other chains not shown): as the sequence (Q92769 whole entry) above
T2 sequence (Q9UKL0 86-485 partner limits assumed, other chains not shown): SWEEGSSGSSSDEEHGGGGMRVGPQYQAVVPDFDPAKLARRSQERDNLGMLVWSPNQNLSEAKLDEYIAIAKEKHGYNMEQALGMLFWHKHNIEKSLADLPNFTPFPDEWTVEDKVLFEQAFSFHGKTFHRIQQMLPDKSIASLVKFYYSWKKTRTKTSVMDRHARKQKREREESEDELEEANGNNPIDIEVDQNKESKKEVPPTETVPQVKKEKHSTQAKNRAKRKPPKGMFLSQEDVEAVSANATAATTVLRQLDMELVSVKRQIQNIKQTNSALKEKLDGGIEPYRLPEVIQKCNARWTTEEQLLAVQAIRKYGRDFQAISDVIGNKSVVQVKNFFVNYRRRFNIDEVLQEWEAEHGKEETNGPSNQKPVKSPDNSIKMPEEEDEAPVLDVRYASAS
T1 sequence (Q13547 whole entry, other chains not shown): as the sequence (Q13547 whole entry) above
T1 sequence (Q9UKL0 86-485 partner limits assumed, other chains not shown): as the sequence (Q9UKL0 86-485 partner limits assumed, other chains not shown) above
T3 sequence (O15379 whole entry): as the sequence (O15379 whole entry) above
T3 sequence (Q9Y618 389-480 partner limits assumed): as the sequence (Q9Y618 389-480 partner limits assumed) above

Structure (SMILES)	IC50 [1] [µM]	IC50 [2] [µM]	IC50 (HDAC3-SMRT complex) [µM]	Effect on cell viability (in words) (HCT116 cells [3]; CellTiter-Glo and flow cytometry)	Fold less DEGs (HCT116 cells [4])	H3K56ac levels (in words) (H3K56ac)	HDAC1 degradation in initial screen (in words) (HDAC1)	Dmax (HDAC1; HCT-116, read-out: Dmax HDAC1) [%]	HDAC2 degradation in initial screen (in words) (HDAC2)	Dmax (HDAC2; HCT-116, read-out: Dmax HDAC2) [%]	HDAC3 dose-response behaviour (hook effect) (HDAC3; HCT116 cells, 24 h, 0.01-10 μM)	Dmax (HDAC3; HCT-116, read-out: Dmax HDAC3) [%]	EC50 (HCT116 cells [3]; Homo sapiens, HCT-116, 48 h) [µM]	SIN3A levels (abundance) (SIN3A) [% abundance]	Percentage of cells in sub-G1 phase (in words) (HCT116 cells [5])	Solubility (in words) (Solubility observations)
CC(=O)N[C@H](C(=O)N1C[C@H](O)C[C@H]1C(=O)NCc1ccc(-c2scnc2C)cc1OCCCCCCCCCCCC(=O)Nc1ccc(C(=O)Nc2ccccc2N)cc1)C(C)(C)C [Compound 21, (2S,4R)-1-((S)-2-Acetamido-3,3-dimethylbutanoyl)-N-(2-((12-((4-((2-aminophenyl)carbamoyl)phenyl)amino)-12-oxododecyl)oxy)-4-(4-methylthiazol-5-yl)benzyl)-4-hydroxypyrrolidine-2-carboxamide]	1.81 ± 0.54	3.46 ± 0.78	3.81 ± 0.79	little effects on cell viability	approximately 10 fold	increased H3K56ac levels significantly but not to the same levels as 1	comparable HDAC1 and HDAC2 degradation to 1	68	comparable HDAC1 and HDAC2 degradation to 1	49	exhibit a standard dose response curve for HDAC3	76	–	–	–	–
Cc1ncsc1-c1ccc(CNC(=O)[C@@H]2C[C@@H](O)CN2C(=O)[C@@H](NC(=O)CCCCCCCCOCC(=O)Nc2ccc(C(=O)Nc3ccccc3N)cc2)C(C)(C)C)cc1 [Compound 7, (2S,4R)-1-((S)-2-(9-(2-((4-((2-Aminophenyl)carbamoyl)phenyl)-amino)-2-oxoethoxy)nonanamido)-3,3-dimethylbutanoyl)-4-hydroxy-N-(4-(4-methylthiazol-5-yl)benzyl)pyrrolidine-2-carboxamide]	–	–	–	–	–	increased H3K56ac to comparable or greater levels than CI-994 and 1	–	–	–	–	–	–	7.3 ± 0.5	50	highest percentage of cells in the sub-G1 phase	–
Cc1ncsc1-c1ccc(CNC(=O)[C@@H]2C[C@@H](O)CN2C(=O)[C@@H](NC(=O)CCCCCCCCCCCCC(=O)Nc2ccc(C(=O)Nc3ccccc3N)cc2)C(C)(C)C)cc1 [Compound 5, N1-(4-((2-Aminophenyl)carbamoyl)phenyl)-N14-((S)-1-((2S,4R)-4-hydroxy-2-((4-(4-methylthiazol-5-yl)benzyl)carbamoyl)-pyrrolidin-1-yl)-3,3-dimethyl-1-oxobutan-2-yl)tetradecanediamide]	–	–	–	–	–	only a modest increase in H3K56ac compared to the shorter linkers	comparable HDAC1 and HDAC2 degradation to the shorter linkers	–	comparable HDAC1 and HDAC2 degradation to the shorter linkers	–	–	–	–	–	–	solubility issues
